# Laboratory results taken from patent publication US20220275274A1, “NEUTRAL FLUORESCENT MITOCHONDRIAL MARKER BASED ON NITROGEN-CONTAINING HETEROCYCLE, PREPARATION METHOD AND USE THEREOF” (SOOCHOW UNIVERSITY, priority 2020, published 2022).
# Experiments:
# [1] = ultraviolet absorption and fluorescence emission in chloroform; type: physicochemical; details: 10 μM; for maximum emission wavelength (fluorescence spectrum): excitation wavelength and slit width per dye
# Protocol: The ultraviolet absorption and fluorescence emission of the dyes prepared in the examples and comparative examples (at a concentration of 10 μM) in chloroform were tested. The horizontal ordinate is the wavelength, and the vertical ordinate is the absorbance and fluorescence intensity, respectively.
# In the ultraviolet-visible absorption spectrum, dye 1a has the maximum absorption at 378 nm; and in the fluorescence spectrum, dye 1a has the highest fluorescence intensity at 452 nm, where the excitation wavelength is 370 nm, and the slit width is 3 nm/1.5 nm. In the ultraviolet-visible absorption spectrum, dye 1b has a maximum absorption wavelength of 382 nm; and in the fluorescence spectrum, dye 1b has a maximum emission wavelength of 485 nm, where the excitation wavelength is 374 nm, and the slit width is 3 nm/1.5 nm. In the ultraviolet-visible absorption spectrum, dye 1c has a maximum absorption wavelength of 385 nm; and in the fluorescence spectrum, dye 1c has a maximum emission wavelength of 454 nm, where the excitation wavelength is 380 nm, and the slit width is 3 nm/1.5 nm. In the ultraviolet-visible absorption spectrum, dye 2a has the maximum absorption at 364 nm; and in the fluorescence spectrum, dye 2a has the highest fluorescence intensity at 480 nm, where the excitation wavelength is 374 nm, and the slit width is 3 nm/1.5 nm. In the ultraviolet-visible absorption spectrum, dye 2b has a maximum absorption wavelength of 360 nm; and in the fluorescence spectrum, dye 2b has a maximum emission wavelength of 458 nm, where the excitation wavelength is 370 nm, and the slit width is 3 nm/1.5 nm. In the ultraviolet-visible absorption spectrum, dye 2c has a maximum absorption wavelength of 356 nm; and in the fluorescence spectrum, dye 2c has a maximum emission wavelength of 441 nm, where the excitation wavelength is 360 nm, and the slit width is 3 nm/3 nm. In the ultraviolet-visible absorption spectrum, dye 3a has the maximum absorption at 548 nm; and in the fluorescence spectrum, dye 3a has the highest fluorescence intensity at 606 nm, where the excitation wavelength is 560 nm, and the slit width is 1.5 nm/1.5 nm. In the ultraviolet-visible absorption spectrum, dye 3b has a maximum absorption wavelength of 549 nm; and in the fluorescence spectrum, dye 3b has a maximum emission wavelength of 608 nm, where the excitation wavelength is 540 nm, and the slit width is 1.5 nm/1.5 nm. In the ultraviolet-visible absorption spectrum, dye 3c has a maximum absorption wavelength of 554 nm; and in the fluorescence spectrum, dye 3c has a maximum emission wavelength of 611 nm, where the excitation wavelength is 540 nm, and the slit width is 1.5 nm/1.5 nm. In the ultraviolet-visible absorption spectrum, dye 3d has a maximum absorption wavelength of 556 nm; and in the fluorescence spectrum, dye 3d has a maximum emission wavelength of 619 nm, where the excitation wavelength is 570 nm, and the slit width is 1.5 nm/1.5 nm. In the ultraviolet-visible absorption spectrum, dye 4 has a maximum absorption wavelength of 501 nm; and in the fluorescence spectrum, dye 4 has a maximum emission wavelength of 515 nm, where the excitation wavelength is 495 nm, and the slit width is 1.5 nm/1.5 nm. The above UV absorption and fluorescence emission test methods are conventional methods.
# L929 cells = experiment: cell imaging, colocalization with green mitochondrial marker Mito Tracker Green FM; type: cell-based; details: dye 1 μM; for mitochondria labeling ability (red mitochondrial marker): L929 (normal) and HeLa (cancer) cells, vs Mito Tracker Green FM; for colocalization coefficient: L929 cells, vs Mito Tracker Green FM (100 nm), red and green channel
# Protocol: (§1) Dye 3a was formulated into a mother liquor in DMSO (dimethyl sulfoxide), and then added to a conventional cell culture medium to give a concentration of dye 3a in the cell culture medium of 1 μM. L929 cells and HeLa cells were respectively co-cultured for 10 min in an incubator at saturated humidity, 37° C., and 5% CO2 (the experiment was same below). The existing green mitochondrial marker Mito Tracker® Green FM (100 nm) was added, and the cells were co-incubated for another 10 min, washed three times with a PBS buffer, and imaged under a laser confocal microscope. In the red channel, light of 561 nm was used for excitation, and a fluorescence signal in the range of 570-750 nm was collected. In the green channel, light of 488 nm was used for excitation, and a fluorescence signal in the range of 500-550 nm was collected. […] The results are shown in FIG. 20, where (a) and (g) are the bright-field images; (b) and (h) are the cell images with dye 3a; (c) and (i) are the cell images with the green mitochondrial marker; (d) and (j) are overlapped images with red channel and green channel, (e) and (k) show the fluorescence intensity of the ROI line in the overlapped images; and (f) and (1) show colocalization assays, with a colocalization coefficient of 0.91 (L929) and 0.90 (HeLa) respectively.
# (§2) The experiment method with dye 3b (1 μM) and dye 3c (1 μM) is the same as that with dye 3a above, except that dye 3a is replaced. […] In FIG. 21, (a) and (g) are the bright-field images; (b) and (h) are the cell images with dye 3b; (c) and (i) are the cell images with the green mitochondrial marker; (d) and (j) are overlapped images with red channel and green channel, (e) and (k) show the fluorescence intensity of the ROI line in the overlapped images; and (f) and (1) show colocalization assays, with a colocalization coefficient of 0.88 (L929) and 0.90 (HeLa) respectively. In FIG. 22, (a) and (g) are the bright-field images; (b) and (h) are the cell images with dye 3c; (c) and (i) are the cell images with the green mitochondrial marker; (d) and (j) are overlapped images with red channel and green channel, (e) and (k) show the fluorescence intensity of the ROI line in the overlapped images; and (f) and (1) show colocalization assays, with a colocalization coefficient of 0.89 (L929) and 0.87 (HeLa) respectively.
# (§3) Dye 3d was formulated into a mother liquor in DMSO (dimethyl sulfoxide), and then added to a conventional cell culture medium to give a concentration of dye 3d in the cell culture medium of 1 μM. L929 cells and HeLa cells were respectively co-cultured for 10 min in an incubator at saturated humidity, 37° C., and 5% CO2. Then the green mitochondrial marker Mito Tracker® Green FM (100 nm) and a green lipid droplet marker were added (the synthesis is as described in CHen, Y.; Wei, X. R.; Sun, R.; Xu, Y. J.; Ge, J. F. Org Biomol CHem 2018, 16, 7619.). The cells were co-incubated for another 10 min, washed three times with a PBS buffer, and imaged under a laser confocal microscope. In the red channel, light of 561 nm was used for excitation, and a fluorescence signal in the range of 570-750 nm was collected. In the green channel, light of 488 nm was used for excitation, and a fluorescence signal in the range of 500-550 nm was collected. […] The results are shown in FIG. 23, where (a) and (f) are the bright-field images, (b) and (g) are the cell images with dye 3d, (c) is the cell image with the green lipid droplet marker, (h) is the cell image with the green mitochondrial marker, (d) and (i) are overlapped images with red channel and green channel, and (e) and (j) show the fluorescence intensity of the ROI line in the overlapped images. […]
# HeLa cells = experiment: as above; type: cell-based; details: dye 1 μM, vs Mito Tracker Green FM (100 nm), red and green channel
# Protocol: as §1, §2, §3
maximum absorption wavelength (ultraviolet-visible absorption spectrum) [1],maximum emission wavelength (fluorescence spectrum) [1],SMILES,mitochondria labeling ability (red mitochondrial marker) (L929 cells),colocalization coefficient (L929 cells),colocalization coefficient (HeLa cells),"organelles marked (L929 cells; L929 and HeLa cells, vs Mito Tracker Green FM and a green lipid droplet marker)"
548 nm,606 nm,CCN(CC)c1ccc2nc3c4ccc(-c5ccc6[nH]ncc6c5)cc4c(=O)cc-3oc2c1 [dye 3a],mitochondria labeling ability in both normal cells and cancer cells,0.91,0.90,
554 nm,611 nm,CCN(CC)c1ccc2nc3c4ccc(-c5cnc6[nH]ncc6c5)cc4c(=O)cc-3oc2c1 [dye 3c],mitochondria labeling ability in both normal cells and cancer cells,0.89,0.87,
549 nm,608 nm,CCN(CC)c1ccc2nc3c4ccc(-c5cnc6[nH]ccc6c5)cc4c(=O)cc-3oc2c1 [dye 3b],mitochondria labeling ability in both normal cells and cancer cells,0.88,0.90,
556 nm,619 nm,CCN(CC)c1ccc2nc3c4ccc(-c5ccc6nccnc6c5)cc4c(=O)cc-3oc2c1 [dye 3d],,,,"simultaneously mark two organelles, i.e. mitochondria and lipid droplets"
